# Test results taken from US12714696B2, “Low dose fluralaner compositions for protection against parasitic invertebrate pest” (VIRBAC, priority 2019, dated 2026).
# Several values for one entry are separate records, joined by “and”; a condition that tells them apart may be missing. Equal entries are not always repeated. Where two headings read alike, the source gives them in different places.
# Test: Pharmacokinetics after repeated oral administration of 35 μg/kg of fluralaner in dogs after feeding
# Format: in vivo, beagle dogs
# Details: for concentration at 24 h / concentration at 48 h / concentration at 72 h / concentration at 96 h / concentration at 120 h / concentration at 240 h / concentration at 360 h / concentration at 480 h: po, 35 μg/kg
# Procedure: The first objective of the study was to obtain the pharmacokinetic parameters after repeated oral administration of 35 μg/kg of fluralaner in dogs, 30 to 35 minutes after feeding.
# The second objective was to investigate the pharmacodynamics between the fluralaner plasmatic dose and the effectiveness against fleas. • IVP: Investigational Veterinary Product, is pure Fluralaner+DMSO (35 μg/kg on Days 0 to 3 (0.35 mL/kg)) • Control product is DMSO (0.35 mL/kg on Days 0 to 3)
# On Days 0, 1, 2 and 3, all dogs assigned to group 2 received the Investigational Veterinary Product. On Days 0 to 3 all dogs in group 1 received the control product at a volume equal to the dogs in group 2. Dogs assigned to group 1 received the control product and served as Placebo controls. The quantity of Investigational Veterinary Product and control product administered was calculated according to the dog's individual body weight measured on Day −1.
# Blood samples were taken from all dogs prior to Investigational Veterinary Product treatment or control product administration on Day 0 and on Days 1 (+24 hours), 2 (+48 hours), 3 (+72 hours), 4 (+96 hours), 5 (+120 hours), 10 (+240 hours), 15 (+360 hours), 20 (+480 hours), 24 (+576 hours) and Day 28 (+672 hours).
# On days of administration of pre-Investigational Veterinary Product or Control Product, dogs were fed (the same dog food) approximately half of their normal daily ration 30 minutes to 35 minutes prior to administration. Food consumed by the time of administration was calculated and recorded. The remainder of their normal daily ration was fed immediately after administration.
# The PK parameters of fluralaner were calculated using a non-compartmental approach.
# The following rules were applied for the calculation of the PK parameters: • All the plasma concentrations, validated by the bioanalytical laboratory, were used for the PK analysis. • The actual blood sampling times were used throughout. • Concentrations below the Limit of Quantification (LOQ) value were considered as zero from time zero (pre-dose) up to the time at which the first quantifiable concentration above the LOQ value was observed. Concentrations below the LOQ value between two quantifiable concentrations were considered as missing. Trailing concentrations below the LOQ value were not used in calculations.
# Cmax the observed maximum concentration in plasma measured after dosing.
# tmax the time at which Cmax was apparent.
# λz the terminal rate constant (λz) was estimated by log-linear regression analysis on data points visually assessed, to be on the terminal log-linear phase. For the slope of the terminal elimination phase to be accepted as reliable, the following criteria were used: • the terminal data points were apparently randomly distributed about a single straight line (on visual inspection), • a minimum of three data points, including the last measured data point and excluding Cmax, were available for the regression.
# t1/2 the terminal plasma half-life (t1/2) was calculated according to the following equation: […]
# AUC0-t the area under the concentration-time curve from time zero (pre-dose) to the time of last quantifiable concentration (t) was calculated using a linear trapezoidal method.
# [AUC0-∞=AUC0-t+(Ct/λz)], where Ct was the observed concentration of drug for the last sample on the PK profile in which the drug was detected, and λz was as defined above.
# The extrapolated area under the curve, expressed as a percentage of the total area, AUCinf, was also calculated as: Area Extra (%)=(AUC0-∞−AUC0-t)/AUC0-∞*100%.
smiles,measurement,setting,value
"Cc1cc(C2=NOC(c3cc(Cl)cc(Cl)c3)(C(F)(F)F)C2)ccc1C(=O)NCC(=O)NCC(F)(F)F (centres unmarked) [fluralaner, Fluralaner]","fluralaner concentration levels, individual animal","24 h, oral 35 μg/kg Days 0-3, dogs",16.5 ng/mL and 16.9 ng/mL (2×) and 18.1 ng/mL and 19.0 ng/mL
same,"fluralaner concentration levels, individual animal","48 h, oral 35 μg/kg Days 0-3, dogs",27.8 ng/mL and 32.2 ng/mL and 37.2 ng/mL and 35.2 ng/mL and 40.9 ng/mL
same,"fluralaner concentration levels, individual animal","72 h, oral 35 μg/kg Days 0-3, dogs",60.6 ng/mL and 47.9 ng/mL and 61.0 ng/mL and 42.0 ng/mL and 57.7 ng/mL
same,"fluralaner concentration levels, individual animal","96 h, oral 35 μg/kg Days 0-3, dogs",76.6 ng/mL and 91.6 ng/mL and 84.5 ng/mL and 71.8 ng/mL and 92.4 ng/mL
same,"fluralaner concentration levels, individual animal","120 h, oral 35 μg/kg Days 0-3, dogs",60.1 ng/mL and 63.6 ng/mL and 55.6 ng/mL and 62.9 ng/mL and 70.0 ng/mL
same,"fluralaner concentration levels, individual animal","240 h, oral 35 μg/kg Days 0-3, dogs",45.8 ng/mL and 34.1 ng/mL and 36.3 ng/mL and 51.6 ng/mL and 44.4 ng/mL
same,"fluralaner concentration levels, individual animal","360 h, oral 35 μg/kg Days 0-3, dogs",39.2 ng/mL and 39.6 ng/mL and 43.5 ng/mL and 37.4 ng/mL and 35.2 ng/mL
same,"fluralaner concentration levels, individual animal","480 h, oral 35 μg/kg Days 0-3, dogs",26.1 ng/mL and 17.1 ng/mL and 21.1 ng/mL and 26.6 ng/mL and 18.4 ng/mL
same,"fluralaner concentration levels, individual animal","576 h, oral 35 μg/kg Days 0-3, dogs",22.0 ng/mL and 14.7 ng/mL and 15.0 ng/mL and 22.2 ng/mL and 13.3 ng/mL
same,"fluralaner concentration levels, individual animal","672 h, oral 35 μg/kg Days 0-3, dogs",15.1 ng/mL and 9.1 ng/mL and 10.3 ng/mL and 16.0 ng/mL and 10.4 ng/mL
same,steady state concentrations,after the fourth dose of 35 μg/kg per day oral,not reached
same,tmax,"beagle, dog, plasma, 35 ug/kg, oral 35 μg/kg Days 0-3, dogs, read-out: Tmax, individual animal",96 h
same,concentration at 24 h,"beagle, dog, plasma, 24 h, oral 35 μg/kg Days 0-3, dogs, n=6, read-out: fluralaner concentration levels, GeoMean",17.3 ng/mL
same,concentration at 24 h,"beagle, dog, plasma, 24 h, oral 35 μg/kg Days 0-3, dogs, n=6, read-out: fluralaner concentration levels, Maximum",19 ng/mL
same,concentration at 24 h,"beagle, dog, plasma, 24 h, oral 35 μg/kg Days 0-3, dogs, n=6, read-out: fluralaner concentration levels, Mean",17.4 ng/mL
same,concentration at 24 h,"beagle, dog, plasma, 24 h, oral 35 μg/kg Days 0-3, dogs, n=6, read-out: fluralaner concentration levels, Median",16.9 ng/mL
same,concentration at 24 h,"beagle, dog, plasma, 24 h, oral 35 μg/kg Days 0-3, dogs, n=6, read-out: fluralaner concentration levels, Minimum",18.5 ng/mL
same,concentration at 24 h,"beagle, dog, plasma, 24 h, oral 35 μg/kg Days 0-3, dogs, read-out: fluralaner concentration levels, individual animal",16.7 ng/mL
same,concentration at 48 h,"beagle, dog, plasma, 48 h, oral 35 μg/kg Days 0-3, dogs, n=6, read-out: fluralaner concentration levels, GeoMean",32.8 ng/mL
same,concentration at 48 h,"beagle, dog, plasma, 48 h, oral 35 μg/kg Days 0-3, dogs, n=6, read-out: fluralaner concentration levels, Maximum",40.9 ng/mL
same,concentration at 48 h,"beagle, dog, plasma, 48 h, oral 35 μg/kg Days 0-3, dogs, n=6, read-out: fluralaner concentration levels, Mean",33.2 ng/mL
same,concentration at 48 h,"beagle, dog, plasma, 48 h, oral 35 μg/kg Days 0-3, dogs, n=6, read-out: fluralaner concentration levels, Median",33.7 ng/mL
same,concentration at 48 h,"beagle, dog, plasma, 48 h, oral 35 μg/kg Days 0-3, dogs, n=6, read-out: fluralaner concentration levels, Minimum",26.1 ng/mL
same,concentration at 48 h,"beagle, dog, plasma, 48 h, oral 35 μg/kg Days 0-3, dogs, read-out: fluralaner concentration levels, individual animal",26.1 ng/mL
same,concentration at 72 h,"beagle, dog, plasma, 72 h, oral 35 μg/kg Days 0-3, dogs, n=6, read-out: fluralaner concentration levels, GeoMean",51.7 ng/mL
same,concentration at 72 h,"beagle, dog, plasma, 72 h, oral 35 μg/kg Days 0-3, dogs, n=6, read-out: fluralaner concentration levels, Maximum",61 ng/mL
same,concentration at 72 h,"beagle, dog, plasma, 72 h, oral 35 μg/kg Days 0-3, dogs, n=6, read-out: fluralaner concentration levels, Mean",52.3 ng/mL
same,concentration at 72 h,"beagle, dog, plasma, 72 h, oral 35 μg/kg Days 0-3, dogs, n=6, read-out: fluralaner concentration levels, Median",52.8 ng/mL
same,concentration at 72 h,"beagle, dog, plasma, 72 h, oral 35 μg/kg Days 0-3, dogs, n=6, read-out: fluralaner concentration levels, Minimum",42 ng/mL
same,concentration at 72 h,"beagle, dog, plasma, 72 h, oral 35 μg/kg Days 0-3, dogs, read-out: fluralaner concentration levels, individual animal",44.6 ng/mL
same,concentration at 96 h,"beagle, dog, plasma, 96 h, oral 35 μg/kg Days 0-3, dogs, n=6, read-out: fluralaner concentration levels, GeoMean",84 ng/mL
same,concentration at 96 h,"beagle, dog, plasma, 96 h, oral 35 μg/kg Days 0-3, dogs, n=6, read-out: fluralaner concentration levels, Maximum",92.4 ng/mL
same,concentration at 96 h,"beagle, dog, plasma, 96 h, oral 35 μg/kg Days 0-3, dogs, n=6, read-out: fluralaner concentration levels, Mean",84.4 ng/mL
same,concentration at 96 h,"beagle, dog, plasma, 96 h, oral 35 μg/kg Days 0-3, dogs, n=6, read-out: fluralaner concentration levels, Median",87 ng/mL
same,concentration at 96 h,"beagle, dog, plasma, 96 h, oral 35 μg/kg Days 0-3, dogs, n=6, read-out: fluralaner concentration levels, Minimum",71.8 ng/mL
same,concentration at 96 h,"beagle, dog, plasma, 96 h, oral 35 μg/kg Days 0-3, dogs, read-out: fluralaner concentration levels, individual animal",89.4 ng/mL
same,concentration at 120 h,"beagle, dog, plasma, 120 h, oral 35 μg/kg Days 0-3, dogs, n=6, read-out: fluralaner concentration levels, GeoMean",63.8 ng/mL
same,concentration at 120 h,"beagle, dog, plasma, 120 h, oral 35 μg/kg Days 0-3, dogs, n=6, read-out: fluralaner concentration levels, Maximum",72.3 ng/mL
same,concentration at 120 h,"beagle, dog, plasma, 120 h, oral 35 μg/kg Days 0-3, dogs, n=6, read-out: fluralaner concentration levels, Mean",64.1 ng/mL
same,concentration at 120 h,"beagle, dog, plasma, 120 h, oral 35 μg/kg Days 0-3, dogs, n=6, read-out: fluralaner concentration levels, Median",63.2 ng/mL
same,concentration at 120 h,"beagle, dog, plasma, 120 h, oral 35 μg/kg Days 0-3, dogs, n=6, read-out: fluralaner concentration levels, Minimum",55.6 ng/mL
same,concentration at 120 h,"beagle, dog, plasma, 120 h, oral 35 μg/kg Days 0-3, dogs, read-out: fluralaner concentration levels, individual animal",72.3 ng/mL
same,concentration at 240 h,"beagle, dog, plasma, 240 h, oral 35 μg/kg Days 0-3, dogs, n=6, read-out: fluralaner concentration levels, GeoMean",43.9 ng/mL
same,concentration at 240 h,"beagle, dog, plasma, 240 h, oral 35 μg/kg Days 0-3, dogs, n=6, read-out: fluralaner concentration levels, Maximum",54.9 ng/mL
same,concentration at 240 h,"beagle, dog, plasma, 240 h, oral 35 μg/kg Days 0-3, dogs, n=6, read-out: fluralaner concentration levels, Mean",44.5 ng/mL
same,concentration at 240 h,"beagle, dog, plasma, 240 h, oral 35 μg/kg Days 0-3, dogs, n=6, read-out: fluralaner concentration levels, Median",45.1 ng/mL
same,concentration at 240 h,"beagle, dog, plasma, 240 h, oral 35 μg/kg Days 0-3, dogs, n=6, read-out: fluralaner concentration levels, Minimum",34.1 ng/mL
same,concentration at 240 h,"beagle, dog, plasma, 240 h, oral 35 μg/kg Days 0-3, dogs, read-out: fluralaner concentration levels, individual animal",54.9 ng/mL
same,concentration at 360 h,"beagle, dog, plasma, 360 h, oral 35 μg/kg Days 0-3, dogs, n=6, read-out: fluralaner concentration levels, GeoMean",39.5 ng/mL
same,concentration at 360 h,"beagle, dog, plasma, 360 h, oral 35 μg/kg Days 0-3, dogs, n=6, read-out: fluralaner concentration levels, Maximum",43.5 ng/mL
same,concentration at 360 h,"beagle, dog, plasma, 360 h, oral 35 μg/kg Days 0-3, dogs, n=6, read-out: fluralaner concentration levels, Mean",39.6 ng/mL
same,concentration at 360 h,"beagle, dog, plasma, 360 h, oral 35 μg/kg Days 0-3, dogs, n=6, read-out: fluralaner concentration levels, Median",39.4 ng/mL
same,concentration at 360 h,"beagle, dog, plasma, 360 h, oral 35 μg/kg Days 0-3, dogs, n=6, read-out: fluralaner concentration levels, Minimum",35.2 ng/mL
same,concentration at 360 h,"beagle, dog, plasma, 360 h, oral 35 μg/kg Days 0-3, dogs, read-out: fluralaner concentration levels, individual animal",42.8 ng/mL
same,concentration at 480 h,"beagle, dog, plasma, 480 h, oral 35 μg/kg Days 0-3, dogs, n=6, read-out: fluralaner concentration levels, GeoMean",22.1 ng/mL
same,concentration at 480 h,"beagle, dog, plasma, 480 h, oral 35 μg/kg Days 0-3, dogs, n=6, read-out: fluralaner concentration levels, Maximum",26.6 ng/mL
